Measured values published in patent US20210122730A1, “GLUCOCORTICOID RECEPTOR MODULATORS” (ORIC Pharmaceuticals, Inc., priority 2017, published 2021).

Tests used:
[1] = target: T1, GR (Homo sapiens, UniProt P04150); test: In Vitro GR Luciferase Reporter Assay (antagonist mode, CHO-K1-GR-MMTV-Luc reporter cells); type: cell-based; settings: antagonist mode, 10 nM Dexamethasone
T1 construct: expressed in transfected cells; host or cells: CHO-K1
T1 sequence (P04150 1-777): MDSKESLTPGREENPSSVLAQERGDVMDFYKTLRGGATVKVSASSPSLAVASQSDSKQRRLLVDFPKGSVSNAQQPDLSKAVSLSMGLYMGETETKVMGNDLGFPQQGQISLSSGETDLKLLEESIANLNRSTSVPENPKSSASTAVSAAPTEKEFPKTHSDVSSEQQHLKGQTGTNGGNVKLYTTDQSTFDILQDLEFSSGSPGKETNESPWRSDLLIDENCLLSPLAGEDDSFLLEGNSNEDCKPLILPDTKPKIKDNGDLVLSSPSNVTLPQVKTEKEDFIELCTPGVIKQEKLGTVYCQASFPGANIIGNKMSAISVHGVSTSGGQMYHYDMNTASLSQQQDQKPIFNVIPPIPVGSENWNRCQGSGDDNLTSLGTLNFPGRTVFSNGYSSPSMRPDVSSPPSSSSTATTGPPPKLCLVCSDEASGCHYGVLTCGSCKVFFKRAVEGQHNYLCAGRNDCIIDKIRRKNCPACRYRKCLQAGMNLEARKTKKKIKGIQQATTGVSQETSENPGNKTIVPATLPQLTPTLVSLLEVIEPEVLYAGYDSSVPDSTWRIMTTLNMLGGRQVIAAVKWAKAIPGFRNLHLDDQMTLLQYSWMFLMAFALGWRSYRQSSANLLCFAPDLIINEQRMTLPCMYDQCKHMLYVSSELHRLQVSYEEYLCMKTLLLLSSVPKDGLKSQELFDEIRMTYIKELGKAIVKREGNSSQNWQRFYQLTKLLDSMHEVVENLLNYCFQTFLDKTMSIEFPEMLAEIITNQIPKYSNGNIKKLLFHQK
Method in brief: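 Antagonist mode: compounds (8 serial 1:5 dilutions) added to GR-MMTV-luciferase CHO-K1 reporter cells co-exposed to 10 nM dexamethasone final, in phenol red-free DMEM plus 10% CSS. After roughly 18-24 h at 37° C, OneGlo luminescence read and IC50 calculated.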

[2] = target: T2, CYP2C8 (Homo sapiens, UniProt P10632); test: CYP Inhibition Assay (CYP2C8, human liver microsomes, paclitaxel substrate); type: in vitro ADME; settings: pH 7.4; pooled human liver microsomes 0.1 mg/mL, probe substrate paclitaxel
T2 construct: Pooled human microsomes were obtained from Sekisui XenoTech, KS; tissue Sekisui XenoTech, KS; host or cells: pooled human liver microsomes
T2 sequence (P10632 1-490): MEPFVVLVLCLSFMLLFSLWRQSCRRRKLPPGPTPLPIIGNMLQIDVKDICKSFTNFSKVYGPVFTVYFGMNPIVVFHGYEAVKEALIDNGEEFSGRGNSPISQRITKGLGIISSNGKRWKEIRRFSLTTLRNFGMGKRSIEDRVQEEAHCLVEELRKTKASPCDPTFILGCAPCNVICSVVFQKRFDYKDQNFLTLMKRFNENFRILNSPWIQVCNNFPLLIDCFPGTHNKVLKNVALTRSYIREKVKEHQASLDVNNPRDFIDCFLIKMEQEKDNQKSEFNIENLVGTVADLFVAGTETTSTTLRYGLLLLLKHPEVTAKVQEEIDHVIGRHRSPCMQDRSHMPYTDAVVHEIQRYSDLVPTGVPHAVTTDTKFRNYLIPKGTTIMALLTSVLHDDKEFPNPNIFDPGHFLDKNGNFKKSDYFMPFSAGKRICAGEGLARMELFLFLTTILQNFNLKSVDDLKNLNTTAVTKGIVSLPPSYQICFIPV
Experimental: Example B: CYP Inhibition Assay
Objective: To assess the % inhibition of test compounds against CYP2C8 enzyme in human liver microsomes.
Pooled human microsomes were obtained from Sekisui XenoTech, KS, and were used for in vitro assessment of compound inhibitory potential of the major drug metabolizing human CYP enzymes.
Test compounds were dissolved in DMSO as 10 mM stock solutions and diluted to 200 µM in acetonitrile as working solutions. The total concentrations of DMSO and acetonitrile were 0.02% and 0.5%, respectively, in the assay.
The assay was performed in duplicate in a 96-well plate. The reaction mixture ([…]) containing a final concentration of 0.1 mg/mL pooled human liver microsomes, 50 mM potassium phosphate, pH 7.4 buffer, was re-warmed at 37° C. for 5 minutes. The reaction was initiated with NADPH solution which was at 1 mM final concentration, and carried out for 5 minutes at 37° C. It was terminated by the addition of 3-fold volume of quench solution (1:1 acetonitrile:methanol with 0.1% formic acid and the internal standard of tolbutamide). The sample was vortexed, centrifuged at 4,000 rpm for 15 min at 4° C. The incubation in the presence of vehicle (0.02% DMSO and 0.5% acetonitrile) was used as the enzyme activity control. The analyses of metabolite 6α-hydroxypaclitaxel in supernatant was performed with LC-MS/MS method (Sciex API 4500 Qtrap coupled to a Shimadzu LC-20AD HPLC).
The CYP enzyme activity was determined based on the formation of 6a-hydroxypaclitaxel metabolite. The % inhibition was calculated using this equation: % Inhibition=100×(1−Ainactivator/Avehicle), where Ainactivator is the CYP enzyme activity in the presence of test compound, and Avehicle is the CYP activity in the presence of vehicle.

Row | IC50 [1] [nM] | inhibition at 5 min [2] [%] | Compound
1 | ≤ 100 | ≤ 25 | Cn1ccc(S(=O)(=O)[C@@]2(F)CCC3=Cc4c(cnn4-c4ccc(F)cc4)C[C@]3(C(=O)c3cc(C(F)(F)F)ccn3)C2)n1 [Example 114, ((4aS,6S)-6-Fluoro-1-(4-fluorophenyl)-6-((1-methyl-1H-pyrazol-3-yl)sulfonyl)-1,4,5,6,7,8-hexahydro-4aH-benzo[f]indazol-4a-yl)(4-(trifluoromethyl)pyridin-2-yl)methanone]
2 | ≤ 100 | 50 to 75 | CN([C@H]1CCC2=Cc3c(cnn3-c3ccc(F)cc3)C[C@]2(C(=O)c2ncc(C(F)(F)F)s2)C1)S(=O)(=O)c1cnn(C)c1 [Example 131, N-((4aS,6S)-1-(4-fluorophenyl)-4a-(5-(trifluoromethyl)thiazole-2-carbonyl)-4,4a,5,6,7,8-hexahydro-1H-benzo[f]indazol-6-yl)-N,1-dimethyl-1H-pyrazole-4-sulfonamide]
3 | ≤ 100 | 75 to 90 | CN([C@H]1CCC2=Cc3c(cnn3-c3ccc(F)cc3)C[C@]2(C(=O)c2ncc(C3CC3)s2)C1)S(=O)(=O)c1cnn(C)c1 [Example 134, N-((4aS,6S)-4a-(5-cyclopropylthiazole-2-carbonyl)-1-(4-fluorophenyl)-4,4a,5,6,7,8-hexahydro-1H-benzo[f]indazol-6-yl)-N,1-dimethyl-1H-pyrazole-4-sulfonamide]
4 | ≤ 100 | 75 to 90 | CN([C@H]1CCC2=Cc3c(cnn3-c3ccc(F)cc3)C[C@]2(C(=O)c2ncc(C3CC3)s2)C1)S(=O)(=O)c1ccn(C)n1 [Example 140, N-((4aS,6S)-4a-(5-cyclopropylthiazole-2-carbonyl)-1-(4-fluorophenyl)-4,4a,5,6,7,8-hexahydro-1H-benzo[f]indazol-6-yl)-N,1-dimethyl-1H-pyrazole-3-sulfonamide]
5 | ≤ 100 | 50 to 75 | Cn1ncc(S(=O)(=O)N(C2CC2)[C@H]2CCC3=Cc4c(cnn4-c4ccc(F)cc4)C[C@]3(C(=O)c3cc(C(F)(F)F)ccn3)C2)n1 [Example 142, N-cyclopropyl-N-((4aS,6S)-1-(4-fluorophenyl)-4a-(4-(trifluoromethyl)picolinoyl)-4,4a,5,6,7,8-hexahydro-1H-benzo[f]indazol-6-yl)-2-methyl-2H-1,2,3-triazole-4-sulfonamide]
6 | ≤ 100 | 75 to 90 | CN([C@H]1CCC2=Cc3c(cnn3-c3ccc(F)cc3)C[C@]2(C(=O)c2ncc(C(F)(F)F)s2)C1)S(=O)(=O)c1ccn(C)n1 [Example 144, N-((4aS,6S)-1-(4-fluorophenyl)-4a-(5-(trifluoromethyl)thiazole-2-carbonyl)-4,4a,5,6,7,8-hexahydro-1H-benzo[f]indazol-6-yl)-N,1-dimethyl-1H-pyrazole-3-sulfonamide]
7 | ≤ 100 | 50 to 75 | CCN([C@H]1CCC2=Cc3c(cnn3-c3ccc(F)cc3)C[C@]2(C(=O)c2ncc(C(F)(F)F)s2)C1)S(=O)(=O)c1cnn(C)c1 [Example 153, N-ethyl-N-((4aS,6S)-1-(4-fluorophenyl)-4a-(5-(trifluoromethyl)thiazole-2-carbonyl)-4,4a,5,6,7,8-hexahydro-1H-benzo[f]indazol-6-yl)-1-methyl-1H-pyrazole-4-sulfonamide]
8 | ≤ 100 | 25 to 50 | CCN([C@H]1CCC2=Cc3c(cnn3-c3ccc(F)cc3)C[C@]2(C(=O)c2cc(C(F)(F)F)ccn2)C1)S(=O)(=O)c1ccn(C)n1 [Example 155, N-ethyl-N-((4aS,6S)-1-(4-fluorophenyl)-4a-(4-(trifluoromethyl)picolinoyl)-4,4a,5,6,7,8-hexahydro-1H-benzo[f]indazol-6-yl)-1-methyl-1H-pyrazole-3-sulfonamide]
9 | ≤ 100 | 75 to 90 | CN([C@H]1CCC2=Cc3c(cnn3-c3ccc(F)cc3)C[C@]2(C(=O)c2cc(C(F)(F)F)ccn2)C1)S(=O)(=O)c1ccnn1C [Example 156, N-((4aS,6S)-1-(4-fluorophenyl)-4a-(4-(trifluoromethyl)picolinoyl)-4,4a,5,6,7,8-hexahydro-1H-benzo[f]indazol-6-yl)-N,1-dimethyl-1H-pyrazole-5-sulfonamide]
